Source: US12673035B2, “Solid dosage forms of elafibranor” (Genfit, priority 2023, dated 2026)

What was measured:
[1] = system: patients with PBC with an inadequate response or intolerance to Ursodeoxycholic acid (UDCA); test: Phase 3 double-blind, randomized, placebo-controlled trial in PBC; format: in vivo, human; conditions: 80 mg once daily
Experimental: This example describes a double-blind, randomized, placebo-controlled trial to evaluate the efficacy and safety of elafibranor 80 mg once daily (qd) versus placebo in a PBC population.
The study included a screening visit, followed by 52 weeks of double-blind treatment period. Patients attended study visits at randomization, Week 4, 13, 26, and 39 during the treatment period.
Elafibranor was administered per os, once daily at 80 mg, for 52 weeks, in the form of tablets of the invention (Formulation 4). The elafibranor 80 mg tablets contained elafibranor (active ingredient) and excipients (microcrystalline cellulose, povidone, croscarmellose, anhydrous colloidal silica, magnesium stearate, Opadry® II white). The white tablets were provided to the participants in aluminum blisters.
The primary objectives were to compare the effect of daily oral administration of elafibranor 80 mg on changes in relevant biochemical indicators of cholestasis or in pruritus to that of placebo in patients with PBC with an inadequate response or intolerance to Ursodeoxycholic acid (UDCA).

[2] = system: mouse; test: Acute toxicity study, single oral doses, mouse; format: in vivo
Experimental: (§1) According to acute toxicity study results, it can be concluded that elafibranor is extremely safe when administered as single oral doses in rat and mouse, since no sign of toxicity was detected up to the dose of 1000 mg/kg.

[3] = system: patients with PBC and inadequate response to Ursodeoxycholic acid (UDCA); test: Phase 2 double-blind, randomized, placebo-controlled trial in PBC; format: in vivo, human; conditions: for mean relative change from baseline to endpoint in serum ALP / median relative change from baseline to endpoint in the pruritus VAS / treatment effect estimate vs placebo, serum ALP (supportive analysis, ANCOVA with baseline ALP as covariate) / mean relative change from baseline to endpoint in GGT / treatment effect estimate vs placebo, GGT (non-parametric randomization-based ANCOVA) / response rates defined by at least 10%, 20% and 40% decrease in ALP from baseline to endpoint, compared to placebo: 12 weeks; for mean relative change from baseline to endpoint in GGT / treatment effect estimate vs placebo, GGT (non-parametric randomization-based ANCOVA) / response rates defined by at least 10%, 20% and 40% decrease in ALP from baseline to endpoint, compared to placebo: mITT set; for response rates defined by at least 10%, 20% and 40% decrease in ALP from baseline to endpoint, compared to placebo: Fishers exact test, p<0.001; for response rate as defined by Paris I risk scores (ALP≤3×ULN, AST≤2×ULN, bilirubin within normal limits) / response rate as defined by Paris II risk scores (ALP≤1.5×ULN, AST≤1.5×ULN, bilirubin within normal limits) / response rate as defined by Toronto I risk scores (ALP≤1.67×ULN) / response rate as defined by Toronto II risk scores (ALP≤1.75×ULN): baseline to endpoint
Experimental: This example describes a double-blind, randomized, placebo-controlled trial to evaluate the efficacy and safety of elafibranor 80 mg and 120 mg once daily (qd) versus placebo in a PBC population.
The study included a screening visit, followed by 12 weeks of double-blind treatment period. Patients attended study visits at randomization, Week 2, 4, 8, 12 during the treatment period.
Elafibranor was administered per os, once daily at 80 mg or 120 mg, for 12 weeks, in the form of tablets of the invention (Formulations 4 and 3). The elafibranor 120 mg and 80 mg tablets contained elafibranor (active ingredient) and excipients (microcrystalline cellulose, povidone, croscarmellose, anhydrous colloidal silica, magnesium stearate, Opadry® II white). The white tablets were provided to the participants in aluminum blisters.
The primary objectives were to compare the effect of daily oral administration of elafibranor 80 mg and 120 mg on changes in serum alkaline phosphatase (ALP) to that of placebo in patients with PBC and inadequate response to Ursodeoxycholic acid (UDCA).
The primary endpoint of the study was to evaluate the efficacy of elafibranor 80 mg or 120 mg with respect to relative change from baseline in serum ALP levels compared to placebo.
Absolute changes in serum ALP levels were monitored from Baseline to week 2, 4, 8 and 12.
The treatment effect estimate was −52.0% (95% CI [−62.5; −41.5]) for the elafibranor 80 mg treatment group and −43.9% (95% CI [−55.7; −32.1]) for the elafibranor 120 mg treatment group.
The primary efficacy supportive analysis conducted using an ANCOVA with baseline ALP as a covariate was consistent with the primary efficacy analysis. The treatment effect estimate was −51.4% (95% CI [−63.3; −39.5]) for the elafibranor 80 mg treatment group and −43.9% (95% CI [−55.8; −31.9]) for the elafibranor 120 mg treatment group.
The percentage of patients was calculated who met the definition of PBC responder criteria applying the Paris I, Toronto I, Toronto II, […], Mayo II, and Barcelona disease prognostic risk criteria. Paris I risk scores were defined as ALP≤3×ULN and AST≤2×ULN and bilirubin within normal limits.
Paris II risk scores were defined as ALP≤1.5×ULN and AST≤1.5×ULN and bilirubin within normal limits.
Toronto I risk scores were defined as ALP≤1.67×ULN.
Toronto II risk scores were defined as ALP≤1.75×ULN.
Considering that pruritus is a preeminent adverse event in subjects with PBC, assessment of pruritus was also considered. More specifically, the change from baseline in pruritus (through 5D-itch scale (measuring the degree, duration, direction [improvement or worsening], disability [effect on daily activities], and distribution of itching) and visual analogue scale for pruritus (VAS).
The 5D-itch scale is a reliable, multidimensional measure of itching that has been validated in patients with chronic pruritus to detect changes over time (Elman S, et al., The 5-D itch scale: a new measure of pruritus. Br J Dermatol. 2010; 162(3):587-593). The VAS is a reliable and validated method of pruritus assessment (Reich A, et al., Visual analogue scale: evaluation of the instrument for the assessment of pruritus. Acta Derm Venereol. 2012; 92(5):497-501).

[4] = system: liver function of subjects; test: Phase 2a clinical studies and Phase 2b clinical trial, liver function; format: in vivo, human; conditions: 80 mg/day for 1 to 3 months (Phase 2a); 80 mg/day and 120 mg/day for 12 months (Phase 2b)
[5] = system: rat; test: Acute toxicity study, single oral doses, rat; format: in vivo
Experimental: as §1

[6] = system: patients with PBC with an inadequate response or intolerance to Ursodeoxycholic acid (UDCA); conditions: phase 3 trial NCT04526665, N Engl J Med 2023; cited from earlier work
[7] = Particle size analysis of jet-milled (micronized) elafibranor; format: physicochemical
Text: Particle size of agglomeration was identified as playing a primary role in the dissolution and variability in the blend uniformity and content uniformity of tablet formulations. In order to obtain suitable particle size distribution, milling of elafibranor was investigated. The micronisation process acts to accelerate grains of powder, with an air jet, in a tornado like flow path within the micronisation chamber of the mill. As particles travel in the circular path, they collide, which leads to a reduction in particle size. Centrifugal force directs larger particles to the outside of the chamber and smaller particles are concentrated in the centre of the mill where they can be transferred to the outlet when the appropriate particle size has been reached.
The micronisation process of elafibranor has been performed with the following jet-mill equipment: Microniser Alpine 200 Aeroplex in ambient conditions of temperature and hygrometry.
The feeder delivers the dosage to the microniser by two screws. This system allows a regularity of the flow. A disposable sleeve is used to separate the air and the micronised product at the end of the microniser.
The micronised elafibranor powder is then collected into polyethylene bags and the obtained weight at the end of the micronisation operation has been recorded.
acceptance criteria: D50%≤5 μm and D90%≤15 μm

[8] = mean of clinical batches #1 to #7

CSc1ccc(C(=O)/C=C/c2cc(C)c(OC(C)(C)C(=O)O)c(C)c2)cc1 [elafibranor, 2-[2,6-dimethyl-4-[(E)-3-(4-methylsulfanylphenyl)-3-oxoprop-1-enyl]phenoxy]-2-methylpropanoic acid]
biochemical response (primary end point), patients ([1]; 52 weeks (Formulation 4), 55 of 108 patients): 51% | difference vs placebo in biochemical response ([1]; 52 weeks, 95% CI 32 to 57): 47 percentage points | patients in whom the alkaline phosphatase level normalized ([1]; at week 52): 15% | difference vs placebo in alkaline phosphatase normalization ([1]; at week 52, 95% CI 6 to 23): 15 percentage points | difference vs placebo in least-squares mean change on the WI-NRS ([1]; through week 52, moderate-to-severe pruritus, 95% CI −1.99 to 0.42, P=0.20): −0.78 | least-squares mean change from baseline through week 52 on the WI-NRS ([1]; patients with moderate-to-severe pruritus): −1.93 | dose up to which no sign of toxicity was detected [2]: ≥ 1000 mg/kg | treatment effect estimate vs placebo, relative change from baseline in serum ALP (primary analysis, non-parametric randomization-based ANCOVA) ([3]; 80 mg once daily per os, 12 weeks (Formulation 4 tablets)): −52.0% | mean relative change from baseline to endpoint in serum ALP ([3]; 80 mg once daily): −48.3% | median relative change from baseline to endpoint in the pruritus VAS ([3]; 80 mg once daily): −23.7% | treatment effect estimate vs placebo, serum ALP (supportive analysis, ANCOVA with baseline ALP as covariate) ([3]; 80 mg once daily): −51.4% | mean relative change from baseline to endpoint in GGT ([3]; 80 mg once daily): −37.1% | treatment effect estimate vs placebo, GGT (non-parametric randomization-based ANCOVA) ([3]; 80 mg once daily): −38.6% | response rates defined by at least 10%, 20% and 40% decrease in ALP from baseline to endpoint, compared to placebo ([3]; 80 mg once daily): statistically significantly greater proportion of responders | response rate as defined by Paris I risk scores (ALP≤3×ULN, AST≤2×ULN, bilirubin within normal limits) ([3]; 80 mg once daily): 80.0% | response rate as defined by Paris II risk scores (ALP≤1.5×ULN, AST≤1.5×ULN, bilirubin within normal limits) ([3]; 80 mg once daily): 53.3% | response rate as defined by Toronto I risk scores (ALP≤1.67×ULN) ([3]; 80 mg once daily): 66.7% | response rate as defined by Toronto II risk scores (ALP≤1.75×ULN) ([3]; 80 mg once daily): 66.7% | treatment effect estimate vs placebo, relative change from baseline in serum ALP (primary analysis, non-parametric randomization-based ANCOVA) ([3]; 120 mg once daily per os, 12 weeks (Formulation 3 tablets)): −43.9% | mean relative change from baseline to endpoint in serum ALP ([3]; 120 mg once daily): −40.6% | median relative change from baseline to endpoint in the pruritus VAS ([3]; 120 mg once daily): −49.5% | treatment effect estimate vs placebo, serum ALP (supportive analysis, ANCOVA with baseline ALP as covariate) ([3]; 120 mg once daily): −43.9% | mean relative change from baseline to endpoint in GGT ([3]; 120 mg once daily): −40.0% | treatment effect estimate vs placebo, GGT (non-parametric randomization-based ANCOVA) ([3]; 120 mg once daily): −39.9% | response rates defined by at least 10%, 20% and 40% decrease in ALP from baseline to endpoint, compared to placebo ([3]; 120 mg once daily): statistically significantly greater proportion of responders | response rate as defined by Paris I risk scores (ALP≤3×ULN, AST≤2×ULN, bilirubin within normal limits) ([3]; 120 mg once daily): 78.6% | response rate as defined by Paris II risk scores (ALP≤1.5×ULN, AST≤1.5×ULN, bilirubin within normal limits) ([3]; 120 mg once daily): 50.0% | response rate as defined by Toronto I risk scores (ALP≤1.67×ULN) ([3]; 120 mg once daily): 78.6% | response rate as defined by Toronto II risk scores (ALP≤1.75×ULN) ([3]; 120 mg once daily): 78.6% | effects on liver function, relevant to PBC [4]: Beneficial effects | dose up to which no sign of toxicity was detected [5]: ≥ 1000 mg/kg | improvements in relevant biochemical indicators of cholestasis vs placebo [6]: significantly greater improvements in relevant biochemical indicators of cholestasis than placebo

CSc1ccc(C(=O)/C=C/c2cc(C)c(OC(C)(C)C(=O)O)c(C)c2)cc1 [micronized elafibranor]
D50% ([7]; clinical batch #1): 2.387 μm | D90% ([7]; clinical batch #1): 6.292 μm | D50% ([7]; clinical batch #2): 3.511 μm | D90% ([7]; clinical batch #2): 10.06 μm | D50% ([7]; clinical batch #3): 2.53 μm | D90% ([7]; clinical batch #3): 6.439 μm | D50% ([7]; clinical batch #4): 4.079 μm | D90% ([7]; clinical batch #4): 10.895 μm | D50% ([7]; clinical batch #5): 2.171 μm | D90% ([7]; clinical batch #5): 6.589 μm | D50% ([7]; clinical batch #6): 2.089 μm | D90% ([7]; clinical batch #6): 6.495 μm | D50% ([7]; clinical batch #7): 2.523 μm | D90% ([7]; clinical batch #7): 6.671 μm | D50% mean [7, 8]: 2.756 μm | D90% mean [7, 8]: 7.634 μm
